From patent US8173764B2, “Solubilization and targeted delivery of drugs with self-assembling amphiphilic polymers” (AllExcel Inc., priority 2006, dated 2012) come the findings set out here.

A short description of one series: physchem. How it is done: (§1) The container bottoms were then attached to the bottom of a small jewelry ultrasonic cleaner bath using a water-resistant double-stick tape. Just enough water was added to the bath to immerse the weigh boats to about ⅓rd height. Sonication was performed for 15 minutes in steps of 5 minutes. The liquids were transferred to centrifuge tubes and centrifuged twice for 30 min. in a bench top centrifuge to pellet out undissolved dye. The supernatants were transferred to clean tubes and centrifuged again, to remove entrained solids. Suspensions of same amounts of dyes in same amount of distilled water as the amount of the polymer solution were treated in the same fashion, as controls. The resulting solutions were spotted (25 ul) on TLC plates to form circles from the drops. The intensities of the spots were compared with spots made from standards of dye solutions made in ethanol or ethanol/water to determine approximate concentrations; the spots are shown in FIG. 1. The solubilities of the dyes in water were determined by dissolving appropriate amount of the dye in […] deionized water (unbuffered) at room temperature, and adding (i.e. titrating with) further water as necessary to obtain saturated solutions.

How the values of series [1] were obtained: as §1

≈ marks a conversion by molar mass, not a printed value. Like-named read-outs stand apart in the source and are kept apart here.

In “physchem” (water, thermodynamic from solid), `O=C1OC2(c3cc(Cl)c(O)cc3Oc3cc(O)c(Cl)cc32)c2ccccc21` [Dichlorofluorescein, dichlorofluorescein] returned a solubility of 10 µg/mL (≈ 24.9 µM). In series [1] (15 min), the “concentration of dye in 50 mg/ml polymer” value is listed as “approximately 5 mg/ml”.
Turning to `Cc1ccccc1/N=N/c1ccc(/N=N/c2c(O)ccc3ccccc23)c(C)c1` [Sudan IV], in “physchem”, the “concentration (solubility) of dye in H2O” value was 0 µg/mL. In addition, the “concentration of dye in 50 mg/ml polymer” value in series [1] is recorded as “approximately 0.2 mg/ml”.

By solubility is commonly meant the concentration that dissolves in the medium under given conditions. Higher therefore signals much dissolved substance.
